Test results as given in ChEMBL document CHEMBL5465560, “Selectivity Literature for EUbOPEN Chemogenomic Library” (2024).

Tests used:
[1] = biological target: T1, Serine/threonine-protein kinase 3 (Homo sapiens) (UniProt Q13188); experiment: Selectivity interaction (Kinase panel (Z-LYTE Assay)) EUB0001632a STK3; conditions: at 10 µM
T1 sequence (whole entry): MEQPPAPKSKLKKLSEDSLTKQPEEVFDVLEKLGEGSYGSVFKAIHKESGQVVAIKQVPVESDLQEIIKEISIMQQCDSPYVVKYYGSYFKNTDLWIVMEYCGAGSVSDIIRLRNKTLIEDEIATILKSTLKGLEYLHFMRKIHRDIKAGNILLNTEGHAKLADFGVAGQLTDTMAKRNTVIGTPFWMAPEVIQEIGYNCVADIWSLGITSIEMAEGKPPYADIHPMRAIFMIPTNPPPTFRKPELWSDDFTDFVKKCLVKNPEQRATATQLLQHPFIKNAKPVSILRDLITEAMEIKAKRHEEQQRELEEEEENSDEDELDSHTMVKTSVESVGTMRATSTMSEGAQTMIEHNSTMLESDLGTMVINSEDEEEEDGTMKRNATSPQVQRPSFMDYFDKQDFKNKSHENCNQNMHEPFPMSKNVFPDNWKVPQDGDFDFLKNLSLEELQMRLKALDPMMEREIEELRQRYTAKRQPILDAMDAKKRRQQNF

[2] = system: Epidermal growth factor receptor (Homo sapiens), P00533 [UNDEFINED MUTATION]; experiment: Selectivity interaction (KinomeScan (DiscoverX)) EUB0000607a EGFR; conditions: at 10 µM
[3] = biological target: 5'-AMP-activated protein kinase catalytic subunit alpha-1 (Homo sapiens, UniProt Q13131); experiment: Selectivity interaction (KinomeScan (DiscoverX)) EUB0000607a PRKAA1; conditions: at 10 µM
[4] = biological target: Wee1-like protein kinase (Homo sapiens) (UniProt P30291); experiment: Selectivity interaction (ProQinase) EUB0000171b WEE1
[5] = biological target: T2, MAP kinase-activated protein kinase 5 (Homo sapiens) (UniProt Q8IW41); experiment: Selectivity interaction (KinomeScan (DiscoverX)) EUB0000695a MAPKAPK5; conditions: at 100 nM
T2 sequence (whole entry): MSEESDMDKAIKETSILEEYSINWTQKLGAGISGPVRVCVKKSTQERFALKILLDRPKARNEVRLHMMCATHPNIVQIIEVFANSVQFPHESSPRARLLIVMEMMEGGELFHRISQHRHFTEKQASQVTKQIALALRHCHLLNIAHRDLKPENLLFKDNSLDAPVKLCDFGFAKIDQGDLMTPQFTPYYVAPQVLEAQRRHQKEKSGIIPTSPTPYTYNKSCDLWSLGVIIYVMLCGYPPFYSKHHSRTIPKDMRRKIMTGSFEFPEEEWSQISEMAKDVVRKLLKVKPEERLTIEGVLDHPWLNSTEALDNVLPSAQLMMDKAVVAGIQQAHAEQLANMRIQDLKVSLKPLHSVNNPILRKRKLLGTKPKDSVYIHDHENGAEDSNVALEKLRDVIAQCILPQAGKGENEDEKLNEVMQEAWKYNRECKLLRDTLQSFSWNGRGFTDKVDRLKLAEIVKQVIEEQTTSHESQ

[6] = biological target: Mitogen-activated protein kinase 1 (Homo sapiens, UniProt P28482); experiment: Selectivity interaction (KinomeScan (DiscoverX)) EUB0000695a MAPK1; conditions: at 100 nM
[7] = biological target: Angiopoietin-1 receptor (Homo sapiens) (UniProt Q02763); experiment: Selectivity interaction (KinomeScan (DiscoverX)) EUB0001049a TEK; conditions: at 1 µM
[8] = biological target: T3, Cytoplasmic tyrosine-protein kinase BMX (Homo sapiens) (UniProt P51813); experiment: Selectivity interaction (Kinase screening (Nanosyn)) EUB0000604a BMX
T3 sequence (whole entry): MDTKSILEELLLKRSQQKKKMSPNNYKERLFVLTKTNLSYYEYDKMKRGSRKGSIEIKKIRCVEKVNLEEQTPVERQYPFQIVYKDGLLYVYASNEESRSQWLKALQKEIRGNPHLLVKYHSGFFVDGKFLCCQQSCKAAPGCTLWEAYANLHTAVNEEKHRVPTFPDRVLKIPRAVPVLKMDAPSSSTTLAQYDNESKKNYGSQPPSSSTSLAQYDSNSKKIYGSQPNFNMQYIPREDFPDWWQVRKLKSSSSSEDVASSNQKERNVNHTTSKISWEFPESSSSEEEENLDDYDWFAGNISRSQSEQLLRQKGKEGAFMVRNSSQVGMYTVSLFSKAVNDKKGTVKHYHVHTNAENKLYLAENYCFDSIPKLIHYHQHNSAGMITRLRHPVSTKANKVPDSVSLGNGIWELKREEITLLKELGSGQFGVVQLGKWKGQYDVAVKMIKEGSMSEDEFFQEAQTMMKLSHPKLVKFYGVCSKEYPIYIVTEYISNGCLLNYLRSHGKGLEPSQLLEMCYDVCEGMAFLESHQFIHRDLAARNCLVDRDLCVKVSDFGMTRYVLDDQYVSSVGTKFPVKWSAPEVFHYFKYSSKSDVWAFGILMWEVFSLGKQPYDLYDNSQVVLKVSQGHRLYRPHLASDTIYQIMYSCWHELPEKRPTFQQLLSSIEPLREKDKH

Activated CDC42 kinase 1 = Activated CDC42 kinase 1 (Homo sapiens, UniProt Q07912); experiment: Selectivity interaction (KinomeScan (DiscoverX)) EUB0000045b TNK2
[9] = biological target: Maternal embryonic leucine zipper kinase (Homo sapiens) (UniProt Q14680); experiment: Selectivity interaction (KinomeScan (DiscoverX)) EUB0001079a MELK; conditions: at 1 µM
[10] = biological target: Serine/threonine-protein kinase OSR1 (Homo sapiens) (UniProt O95747); experiment: Selectivity interaction (KinomeScan (DiscoverX)) EUB0001619a OXSR1; conditions: at 1 µM
Serine/threonine-protein kinase OSR1 (Homo sapiens), sequence (O95747 2-527 limits assumed): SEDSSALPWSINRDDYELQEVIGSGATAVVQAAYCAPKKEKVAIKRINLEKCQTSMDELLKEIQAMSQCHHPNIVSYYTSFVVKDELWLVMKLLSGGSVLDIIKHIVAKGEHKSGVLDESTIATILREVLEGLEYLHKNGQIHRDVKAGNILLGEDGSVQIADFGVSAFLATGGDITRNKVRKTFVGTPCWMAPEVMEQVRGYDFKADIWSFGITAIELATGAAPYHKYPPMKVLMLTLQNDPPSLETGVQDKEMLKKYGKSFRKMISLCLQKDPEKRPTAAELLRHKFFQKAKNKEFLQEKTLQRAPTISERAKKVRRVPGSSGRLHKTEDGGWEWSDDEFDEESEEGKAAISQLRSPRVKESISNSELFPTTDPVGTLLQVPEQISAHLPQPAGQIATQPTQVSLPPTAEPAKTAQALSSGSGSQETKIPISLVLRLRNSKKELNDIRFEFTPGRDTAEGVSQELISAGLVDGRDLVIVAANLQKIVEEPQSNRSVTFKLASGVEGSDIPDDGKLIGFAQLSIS

Wee1-like protein kinase (Homo sapiens), sequence (P30291 whole entry, looked up): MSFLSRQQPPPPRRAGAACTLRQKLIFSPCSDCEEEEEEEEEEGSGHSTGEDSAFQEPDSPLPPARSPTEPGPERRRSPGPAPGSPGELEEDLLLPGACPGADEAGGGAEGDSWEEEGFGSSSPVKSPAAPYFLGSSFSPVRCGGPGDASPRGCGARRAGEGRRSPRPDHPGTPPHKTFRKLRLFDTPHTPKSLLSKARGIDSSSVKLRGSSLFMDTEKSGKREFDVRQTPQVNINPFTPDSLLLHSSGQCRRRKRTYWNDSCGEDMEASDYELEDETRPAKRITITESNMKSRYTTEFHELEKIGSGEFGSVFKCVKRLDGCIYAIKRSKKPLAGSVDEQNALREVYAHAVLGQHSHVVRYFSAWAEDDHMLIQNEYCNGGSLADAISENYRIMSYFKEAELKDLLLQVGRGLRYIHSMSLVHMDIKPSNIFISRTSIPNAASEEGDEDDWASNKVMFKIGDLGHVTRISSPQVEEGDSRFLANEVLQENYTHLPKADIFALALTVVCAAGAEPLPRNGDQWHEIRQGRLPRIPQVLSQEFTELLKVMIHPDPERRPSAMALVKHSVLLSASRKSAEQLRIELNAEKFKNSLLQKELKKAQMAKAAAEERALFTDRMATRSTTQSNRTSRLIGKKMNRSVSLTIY
Activated CDC42 kinase 1, sequence (Q07912 whole entry, looked up): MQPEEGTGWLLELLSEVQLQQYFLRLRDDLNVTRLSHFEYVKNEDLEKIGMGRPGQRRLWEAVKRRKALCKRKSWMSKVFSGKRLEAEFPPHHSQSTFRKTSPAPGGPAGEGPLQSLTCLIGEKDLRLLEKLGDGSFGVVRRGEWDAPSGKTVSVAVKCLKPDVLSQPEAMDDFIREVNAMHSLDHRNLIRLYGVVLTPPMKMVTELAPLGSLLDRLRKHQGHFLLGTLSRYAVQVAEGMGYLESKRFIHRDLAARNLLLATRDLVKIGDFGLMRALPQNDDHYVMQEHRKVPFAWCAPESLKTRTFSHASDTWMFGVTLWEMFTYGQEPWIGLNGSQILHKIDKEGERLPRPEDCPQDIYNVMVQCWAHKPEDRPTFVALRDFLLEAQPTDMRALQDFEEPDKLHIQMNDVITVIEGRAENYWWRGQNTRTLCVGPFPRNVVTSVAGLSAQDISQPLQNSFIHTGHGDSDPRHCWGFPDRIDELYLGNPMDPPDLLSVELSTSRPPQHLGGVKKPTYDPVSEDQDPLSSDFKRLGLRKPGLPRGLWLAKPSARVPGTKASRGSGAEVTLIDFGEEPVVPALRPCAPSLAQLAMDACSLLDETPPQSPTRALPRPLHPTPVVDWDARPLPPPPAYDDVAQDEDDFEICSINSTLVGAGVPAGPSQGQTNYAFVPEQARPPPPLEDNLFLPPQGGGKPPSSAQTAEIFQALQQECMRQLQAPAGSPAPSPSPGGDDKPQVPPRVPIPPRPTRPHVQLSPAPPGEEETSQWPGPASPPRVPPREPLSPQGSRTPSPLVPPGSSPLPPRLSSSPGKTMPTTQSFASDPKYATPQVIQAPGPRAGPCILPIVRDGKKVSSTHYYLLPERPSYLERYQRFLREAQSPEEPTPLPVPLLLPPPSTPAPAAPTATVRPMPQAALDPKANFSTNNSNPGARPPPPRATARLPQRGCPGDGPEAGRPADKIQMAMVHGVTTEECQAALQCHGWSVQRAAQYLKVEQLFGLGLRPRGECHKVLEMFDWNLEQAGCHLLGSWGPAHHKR
Epidermal growth factor receptor (Homo sapiens), P00533 [UNDEFINED MUTATION], sequence (P00533 whole entry, looked up, change not shown): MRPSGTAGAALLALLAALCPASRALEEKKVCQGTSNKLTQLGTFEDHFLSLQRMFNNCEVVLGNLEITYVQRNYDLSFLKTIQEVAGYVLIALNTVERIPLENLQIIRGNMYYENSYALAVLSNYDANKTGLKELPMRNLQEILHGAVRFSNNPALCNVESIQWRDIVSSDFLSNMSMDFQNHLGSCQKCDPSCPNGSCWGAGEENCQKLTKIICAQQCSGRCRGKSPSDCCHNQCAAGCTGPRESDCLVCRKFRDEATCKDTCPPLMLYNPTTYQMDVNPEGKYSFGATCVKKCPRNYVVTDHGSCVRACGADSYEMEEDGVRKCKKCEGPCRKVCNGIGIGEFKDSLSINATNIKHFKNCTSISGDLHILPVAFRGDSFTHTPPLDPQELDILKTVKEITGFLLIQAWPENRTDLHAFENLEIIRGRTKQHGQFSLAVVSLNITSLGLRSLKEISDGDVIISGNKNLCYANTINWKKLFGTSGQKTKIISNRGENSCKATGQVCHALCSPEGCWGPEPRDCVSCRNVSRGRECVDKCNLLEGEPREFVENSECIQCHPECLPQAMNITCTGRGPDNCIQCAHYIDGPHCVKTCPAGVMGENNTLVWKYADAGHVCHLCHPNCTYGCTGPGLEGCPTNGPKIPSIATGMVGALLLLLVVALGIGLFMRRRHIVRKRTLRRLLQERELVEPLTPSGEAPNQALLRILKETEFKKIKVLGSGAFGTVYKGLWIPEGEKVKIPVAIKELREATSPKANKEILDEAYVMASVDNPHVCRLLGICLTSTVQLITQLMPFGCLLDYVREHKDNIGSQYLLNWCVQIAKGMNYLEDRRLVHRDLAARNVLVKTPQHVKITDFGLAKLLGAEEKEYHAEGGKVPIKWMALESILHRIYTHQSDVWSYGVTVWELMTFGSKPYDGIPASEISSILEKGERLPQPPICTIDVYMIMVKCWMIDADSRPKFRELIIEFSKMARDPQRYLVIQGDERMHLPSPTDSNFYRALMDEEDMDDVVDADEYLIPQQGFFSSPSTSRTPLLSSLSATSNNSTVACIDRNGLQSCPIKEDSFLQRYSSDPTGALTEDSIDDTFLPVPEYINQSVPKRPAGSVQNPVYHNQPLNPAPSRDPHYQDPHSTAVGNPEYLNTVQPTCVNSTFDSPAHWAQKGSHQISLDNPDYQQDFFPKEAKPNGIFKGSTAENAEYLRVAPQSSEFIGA
Angiopoietin-1 receptor (Homo sapiens), sequence (Q02763 whole entry): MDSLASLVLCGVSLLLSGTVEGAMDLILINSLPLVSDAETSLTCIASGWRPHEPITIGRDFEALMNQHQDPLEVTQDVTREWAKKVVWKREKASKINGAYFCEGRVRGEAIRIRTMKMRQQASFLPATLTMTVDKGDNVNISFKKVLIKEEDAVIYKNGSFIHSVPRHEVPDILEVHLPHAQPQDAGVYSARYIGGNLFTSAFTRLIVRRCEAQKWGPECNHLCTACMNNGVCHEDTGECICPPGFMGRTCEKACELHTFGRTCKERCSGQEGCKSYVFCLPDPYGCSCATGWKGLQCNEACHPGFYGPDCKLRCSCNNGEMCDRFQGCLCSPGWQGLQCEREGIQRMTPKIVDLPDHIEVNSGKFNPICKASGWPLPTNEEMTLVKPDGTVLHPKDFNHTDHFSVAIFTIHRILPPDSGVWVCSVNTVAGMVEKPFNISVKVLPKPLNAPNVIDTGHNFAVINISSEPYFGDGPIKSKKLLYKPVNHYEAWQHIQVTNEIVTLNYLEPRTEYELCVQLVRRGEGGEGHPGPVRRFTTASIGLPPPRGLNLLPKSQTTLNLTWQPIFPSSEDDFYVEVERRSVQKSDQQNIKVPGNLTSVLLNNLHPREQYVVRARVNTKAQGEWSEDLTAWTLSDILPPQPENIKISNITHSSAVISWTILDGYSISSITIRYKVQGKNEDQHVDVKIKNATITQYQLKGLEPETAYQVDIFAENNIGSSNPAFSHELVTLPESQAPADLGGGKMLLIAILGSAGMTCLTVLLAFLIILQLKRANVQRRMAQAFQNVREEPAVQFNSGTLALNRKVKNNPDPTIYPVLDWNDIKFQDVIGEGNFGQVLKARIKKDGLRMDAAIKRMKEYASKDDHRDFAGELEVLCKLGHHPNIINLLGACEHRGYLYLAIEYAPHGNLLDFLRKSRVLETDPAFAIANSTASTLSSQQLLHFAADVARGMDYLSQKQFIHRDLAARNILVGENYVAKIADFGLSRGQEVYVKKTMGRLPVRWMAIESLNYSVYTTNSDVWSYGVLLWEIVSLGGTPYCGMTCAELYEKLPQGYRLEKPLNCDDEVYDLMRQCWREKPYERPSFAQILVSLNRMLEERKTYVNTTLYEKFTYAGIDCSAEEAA
Mitogen-activated protein kinase 1, sequence (P28482 whole entry): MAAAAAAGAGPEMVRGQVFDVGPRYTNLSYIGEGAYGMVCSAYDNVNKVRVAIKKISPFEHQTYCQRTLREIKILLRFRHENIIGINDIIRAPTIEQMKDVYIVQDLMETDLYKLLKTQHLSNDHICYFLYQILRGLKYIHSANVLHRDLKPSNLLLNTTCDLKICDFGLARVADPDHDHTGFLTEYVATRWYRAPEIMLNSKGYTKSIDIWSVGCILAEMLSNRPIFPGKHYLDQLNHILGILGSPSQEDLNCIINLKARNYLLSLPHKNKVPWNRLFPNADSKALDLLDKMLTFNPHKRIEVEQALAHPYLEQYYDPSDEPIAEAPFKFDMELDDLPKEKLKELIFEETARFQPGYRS

For Cn1cc(-n2cnc3c(NCc4nc5cc(Cl)c(Cl)cc5[nH]4)nc(N4CCOCC4)nc32)cn1, the % of control [1] was 0.418%.
With CNC(=O)Nc1ccc(-c2nc(N3CC4CCC(C3)O4)c3cnn(C4CCC5(CC4)OCCO5)c3n2)cc1 the % of control [2] was 52% and the % of control [3] was 94%.
For C=CC(=O)Nc1cccc(C(=O)Nc2ccc(Nc3cc(-c4[nH]c(SC)nc4C)ccn3)cc2)c1, the % of control ([4]; at 1 µM) was 73% and the % of control ([4]; at 5 µM) was 79%.
Molecule Cc1cc(F)c(C(=O)Nc2cccc(-c3nncn3C(C)C)n2)cc1-n1cnc(C2CC2)c1 has a % of control [5] of 76% and a % of control [6] of 98%.
Molecule COc1cc(Nc2nc(C)cc(-c3cnn4nc(OC)ccc34)n2)cc(C(F)(F)F)c1 has a % of control [7] of 100%.
With Cc1cnc(Nc2ccc(F)cc2Cl)nc1-c1c[nH]c(C(=O)N[C@H](CO)c2cccc(Cl)c2)c1 the % of inhibition [8] was 3%.
With C=CC(=O)Nc1cc(-n2c(=O)ccc3cnc4ccc(-c5ccc(NS(C)(=O)=O)cc5)cc4c32)ccc1C the % of control (Activated CDC42 kinase 1; at 1 µM) was 100% and the % of control (Activated CDC42 kinase 1; at 10 µM) was 100%.
Work on Nc1cnc(N2CCc3cc(S(=O)(=O)Nc4c(F)cc(Cl)cc4F)cc(N4CCCC4=O)c32)nc1 [TP-020n] yielded a % of control [9] of 90%.
Molecule N#Cc1cccc(-c2c[nH]c3ncnc(N4CCOCC4)c23)c1 has a % of control [10] of 90%.
